Experimental data: US5120828A, “Synthetic polypeptide with laminin activity” (Regents of the University of Minnesota, priority 1989, dated 1992)

Biological target: T1, peptide AC15 (Mus musculus, UniProt P02469)
T1 construct: residues 202-218 from the B1 chain of laminin; The single letter amino acid code for this polypeptide is RIQNLLKITNLRIKFVK; made in house; host or cells: chemical solid-phase (Merrifield) synthesis, no expression host
Assay: Heparin/peptide interaction specificity: competition of 3H-heparin binding to coated peptide AC15 by glycosaminoglycans
Settings: 3 μg per well of peptide AC15 coated; various amounts of non-radioactive glycosaminoglycan; 2 h, 37° C.; FIG. 9
Protocol: To check whether charge was the main factor in the interaction between heparin and peptide AC15 or whether the heparin structure was also critical to this interaction, heparin along with one other sulfated glucosaminoglycan, chondroitin sulfate were used in competition experiments. A standard amount of 3 μg per well of peptide AC15 was coated on 96-well plates as described above. Wells were treated for two hours with 2 mg/ml BSA in wash buffer. Then, a final volume of 50 μl was added to each well, containing a standard amount of ^3 H-heparin (5,000 cpm per well) and various amounts of non-radioactive heparin, and chondroitin sulfate. After incubating for two hours at 37° C., the wells were washed and radioactivity was counted as described above in Example 1.

Substance | competition for the binding of tritiated heparin to peptide AC15
heparin | able to compete for the binding of tritiated heparin to peptide AC15 at very low concentrations
chondroitin sulfate | cannot mimic this effect even at very high concentrations
